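How tested: cells in 96-well plates exposed to compound for 48 hours at five concentrations. GI50 is the concentration that inhibits growth by half.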 Activity calls are given as the source filed them. Cut-off read from the data, not from the text of the source: active = GI50 up to about 1.1 µM and inactive = higher.
Columns and labels:
Assay in all cases: growth of human tumour cells (NCI), 48 h
A549 = system: A549
COLO 205 = system: COLO 205
HCT-15 = system: HCT-15
HT-29 = system: HT-29
IGROV-1 = system: IGROV-1
K562 = system: K562
LOX IMVI = system: LOX IMVI
M14 = system: M14
MDA-MB-435 = system: MDA-MB-435
NCI-H460 = system: NCI-H460
NCI/ADR-RES = system: NCI/ADR-RES
OVCAR-5 = system: OVCAR-5
RXF 393 = system: RXF 393
SF-268 = system: SF-268
SF-295 = system: SF-295
SK-MEL-2 = system: SK-MEL-2
SK-MEL-5 = system: SK-MEL-5
SK-OV-3 = system: SK-OV-3
UACC-257 = system: UACC-257

Structure (SMILES) | GI50 (A549) | GI50 (COLO 205) | GI50 (HCT-15) [µM] | GI50 (HT-29) | GI50 (IGROV-1) | GI50 (K562) | GI50 (LOX IMVI) | GI50 (M14) | GI50 (MDA-MB-435) | GI50 (NCI-H460) | GI50 (NCI/ADR-RES) | GI50 (OVCAR-5) | GI50 (RXF 393) | GI50 (SF-268) | GI50 (SF-295) | GI50 (SK-MEL-2) | GI50 (SK-MEL-5) | GI50 (SK-OV-3) | GI50 (UACC-257)
Cn1ccnc1CCc1ccc(F)cc1F | > 100 µM (inactive) | > 100 µM (inactive) | > 100 | > 100 µM (inactive) | > 100 µM (inactive) | > 100 µM (inactive) | > 100 µM (inactive) | > 100 µM (inactive) | > 100 µM (inactive) | > 100 µM (inactive) | > 100 µM (inactive) | > 100 µM (inactive) | > 100 µM (inactive) | > 100 µM (inactive) | > 100 µM (inactive) | > 100 µM (inactive) | > 100 µM (inactive) | > 100 µM (inactive) | 
CC1=NN(c2cccc(Cl)c2)C2(C1=Cc1ccccc1)C(Cl)C(=O)N2c1nc2ccccc2s1 (stereo not given) |  |  | 15.9 | 19.8 µM (inactive) | 15.1 µM (inactive) | 19.1 µM (inactive) | 23.7 µM (inactive) | 20.4 µM (inactive) | 19.3 µM (inactive) | 15.2 µM (inactive) | 20.4 µM (inactive) | 21.3 µM (inactive) | 14 µM (inactive) | 23.2 µM (inactive) | 20.2 µM (inactive) | 17 µM (inactive) | 13.3 µM (inactive) | 20.9 µM (inactive) | 24 µM (inactive)
Cc1n[nH]c(=O)n1/N=C/c1cccs1 | > 100 µM (inactive) | > 100 µM (inactive) | > 100 | > 100 µM (inactive) |  | > 100 µM (inactive) | > 100 µM (inactive) | > 100 µM (inactive) | > 100 µM (inactive) | > 100 µM (inactive) | > 100 µM (inactive) | > 100 µM (inactive) | > 100 µM (inactive) | > 100 µM (inactive) | > 100 µM (inactive) | > 100 µM (inactive) |  | > 100 µM (inactive) | > 100 µM (inactive)
CC(C)C[C@H](NC(=O)[C@H](Cc1ccccc1)NC(=O)c1cnccn1)B(O)O [BORTEZOMIB] | < 0.01 µM (active) | < 0.01 µM (active) | < 0.01 | < 0.01 µM (active) | < 0.01 µM (active) | < 0.01 µM (active) | 0.01 µM (active) | < 0.01 µM (active) | < 0.01 µM (active) | < 0.01 µM (active) | 0.0141 µM (active) | < 0.01 µM (active) | < 0.01 µM (active) | < 0.01 µM (active) | < 0.01 µM (active) | 0.01 µM (active) |  | 0.0329 µM (active) | < 0.01 µM (active)
C=C[C@@H](C)[C@H](NS(=O)(=O)c1ccc(C)cc1)C(=O)OCC | 32 µM (inactive) | 52.2 µM (inactive) | 31.3 | 27.2 µM (inactive) | 25.8 µM (inactive) | 39.7 µM (inactive) | 19.7 µM (inactive) | 54.1 µM (inactive) | 21.4 µM (inactive) | 42.2 µM (inactive) | 41.3 µM (inactive) | 26.2 µM (inactive) | 42.3 µM (inactive) | 32 µM (inactive) | 21.2 µM (inactive) | 33.3 µM (inactive) |  | 36.6 µM (inactive) | 24.9 µM (inactive)
COc1ccc2nc3c(nc2c1)C(C)(C)C=C3c1ccc(Br)cc1 | > 100 µM (inactive) | > 100 µM (inactive) | > 100 | > 100 µM (inactive) | > 100 µM (inactive) | > 10 µM (inactive) | > 100 µM (inactive) | > 100 µM (inactive) | > 100 µM (inactive) | > 100 µM (inactive) | > 100 µM (inactive) | > 100 µM (inactive) | > 100 µM (inactive) | > 100 µM (inactive) |  | > 100 µM (inactive) | > 100 µM (inactive) |  | > 100 µM (inactive)

From ChEMBL document CHEMBL1201862, “PubChem BioAssay data set” (2004)
